{"source": "patent US20250345316A1", "about": "“METHODS OF INCREASING LYMPHOCYTE TRAFFICKING TO THE COLON BY STIMULATING RETINOIC ACID RECEPTORS AND ARYL HYDROCARBON RECEPTORS” (President and Fellows of Harvard College, priority 2024, published 2025)", "key": {"[1]": {"test_system": "OT-1 cells (antigen-specific CD8+ T cells)", "assay": "OT-1 in vivo assay (parenteral immunization): OT-1 cells in tissues by flow cytometry", "parameters": "species or system mice", "details": "for OT-1 effector cells in the colon and cecum: B6 mice, OVA+CpG s.c. day 0, Am80 500 nmol, 10-CL-BBQ 164 nmol s.c. day 0, 1, 2; for OT-1 effector cells in the colon and cecum / OT-1 cells in the small intestine: day 7; for OT-1 cells in the small intestine: same regimen; for CD8+ T cell trafficking to the small intestine / tissue residence: supplementation", "protocol": "OT-1 in vivo Assay (Parenteral Immunization): Mice were adoptively transferred with OT-1 cells, and subsequently immunized with […] chicken ovalbumin (OVA) and an adjuvant CpG-1668 (0.5 nmol). On day 0.1 and 2, mice were injected s.c. with solvent control (DMSO, 10% v/v in PEG-400), retinoic acid receptor agonist Am80 (500 nmol in PEG-400), AHR agonist 10-CL-BBQ (164 nmol in PEG-400), or Am80+10-CL-BBQ (same dose). At timepoints defined by individual experiments, tissues were harvested and analyzed.\nPreparing intestinal samples for flow cytometry: Small intestine (duodenum to ileum) was dissected out and flushed. Peyer's patches and fat were removed, and the tissue was cut into 4-5 pieces, and flipped to expose the luminal surface. Colon and cecum were dissected out, flushed and cut open longitudinally.\n(§1) Cell Count and Flow Cytometry and Cell Count: For cell counting, samples were diluted and counted on a BD Accuri C6 Plus cytometer. For flow cytometry, samples were run on a Beckman CytoFLEX cytometer, and analysis was done using Flow Jo software V10.\nThe experimental approach is shown in the schematic in FIG. 2. Antigen-specific CD8+ T cells (OT-1 cells, recognizing a peptide within the chicken ovalbumin protein) were adoptively transferred (1×10^5 cells) to B6 recipient mice on day −1, and B6 recipients were vaccinated subcutaneously (s.c.) on day 0 with 100 μg chicken ovalbumin (OVA) and an adjuvant CpG-1668 (0.5 nmol). On day 0.1 and 2, mice were injected subcutaneously with solvent control (DMSO, 10% v/v in PEG-400), retinoic acid receptor agonist Am80 (500 nmol in PEG-400), AHR agonist 10-CL-BBQ (164 nmol in PEG-400), or Am80+10-CL-BBQ (same dose). Tissues were harvest on day 7 and analyzed by flow cytometry."}, "[2]": {"test_system": "α4β7, GPR15 and CCR9 on OT-1 cells", "assay": "OT-1 in vivo assay: expression of gut homing molecules on OT-1 cells in blood and draining lymph nodes", "parameters": "species or system mice", "details": "for GPR15 on OT-1 cells (effector CD8+ T cells): day 4 blood, L-KYN 500 nmol in PEG-400; for α4β7 and CCR9 expression: subcutaneous vaccination model, supplementation", "protocol": "At timepoints defined by individual experiments, tissues were harvested and analyzed.\nas §1\nThe experimental approach is shown in the schematic in FIG. 2. […] Tissues were harvest on day 7 and analyzed by flow cytometry."}, "OT-1 cells": {"test_system": "OT-1 cells", "assay": "Short-term competitive homing of OT-1 cells", "type": "in vivo, mice", "details": "5×10^6 cells from each treatment transferred into naïve B6 recipients; without Am80", "protocol": "Short-term Competitive Homing: OT-1 cells, either in vitro or in vivo generated, were distinguished by congenic markers CD45.1/CD45.2, mixed at around 1:1 ratio and adoptively transferred into recipient animals. At 20-24 hours post transfer, mice were sacrificed, and tissues were harvested for analysis. Ratio of transferred cells were obtained, and homing index was calculated.\nBriefly, two GFP+OT-1 transgenic mice with or without expression of the congenic marker CD45.1 were used per experiment (mouse A and mouse B), and OT-1 cells were isolated from their spleens. OT-1 cells from different mice ([A] and [B]) were subjected to different treatments (A and B, including culture, genetic manipulation, in vivo activation and re-harvesting, etc). The cells were then mixed at an around 1:1 ratio and injected into a B6 recipient (GFP−). At timepoints (determined for each experiment), with or without additional in vivo treatments (determined by each experiment), tissues were analyzed by flow cytometry and the ratio of [A] and [B] in each tissue was obtained. Homing index and normalized homing index (see equation) were calculated.\nAs a supplementation to in vitro approaches, the gut homing capacity of in vivo generated effector T cells was tested in the disclosed vaccination strategy. […]"}, "AHR": {"test_system": "AHR", "assay": "CRISPR knockout of AHR in OT-1 cells, co-transfer with control cells", "type": "in vivo, mouse", "text": "CRISPR Knockout of AHR and GPR15: Naïve GFP+OT-1 cells were isolated with mouse CD8a+ T Cell Isolation Kit (Miltenyi) and nucleofected with Cas9 protein, complexed with either control (CD19) gRNA, or GPR15 gRNA. gRNAs were designed using Synthego online tool and synthesized by Synthego. The procedure was done using a Lonza nucleofector, with the P3 Primary cell Kit. Cells were distinguished based on expression of congenic marker CD45.1 and co-transferred into recipient mice. Recipient mice were immunized, and tissues were analyzed at different timepoints.\nLoss of AHR abrogated ligand-depended upregulation of GPR15. Naïve GFP+OT-1 cells were nucleofected with Cas9 protein, complexed with either control (CD19) gRNA, or AHR gRNA. Transfected cells were distinguished based on expression of congenic marker CD45.1 and co-transferred into recipient mice. Recipient mice were immunized with OVA+CpG, and injected with DMSO, Am80, 10-CL-BBQ or Am80+10-CL-BBQ (same dose and regimen as previously described). Flow cytometry plots, gated on OT-1 cells. […] Quantification is shown of GPR15+, α4β7+ and CCR9+ cells, percentage out of OT-1 cells in respective groups (FIGS. 21B-21D). […] Control cells used were CD45.1^− and […] cells were CD45.1+."}, "OT-1 CD8+ T cells": {"test_system": "OT-1 CD8+ T cells", "assay": "OT-1 in vitro culture to generate GPR15+CD8+ T cells", "type": "cell-based, mouse", "details": "day 4 post activation", "protocol": "OT-1 in vitro Culture: OT-1 splenocytes were pulsed for 1 hour with 1 μg OVA peptide (257-264) and cultured overnight in complete T cell (RPMI) media. The next day, CD8+ T cells were isolated using mouse CD8a+ T Cell Isolation Kit (Miltenyi) and cultured with various treatment conditions.\nVarious treatment conditions were tested for the efficiency of generating GPR15^+CD8^+ T cells. OT-1 splenocytes were pulsed for 1 hour with 1 μg OVA peptide (257-264) and cultured overnight in complete RPMI media. The next day, CD8^+ T cells were isolated using mouse CD8a^+ T Cell Isolation Kit (Miltenyi) and cultured with various treatment conditions. […] 4 days post activation. Plots were pre-gated on CD8a^+ cells. […] GPR15^+ T cells peaked around 4-5 days post activation. Cells were treated with IL-2+10-CL-BBQ+TGF-β1."}, "[3]": {"test_system": "OT-1 cells (antigen-specific CD8+ T cells)", "assay": "OT-1 in vivo assay (parenteral immunization): OT-1 cells in tissues by flow cytometry", "parameters": "species or system mice"}, "[4]": {"details": "10 nM ATRA added concurrently with IL-2+TGF-β1+10-CL-BBQ"}}, "data": [{"compound": "O=c1c2cccc3cccc(c32)c2nc3ccc(Cl)cc3n12", "note": "[10-CL-BBQ, 10-Chloro-7H-benzimidazo[2,1-a]benzl[de]isoquinolin-7-one]", "values": [{"measurement": "OT-1 effector cells in the colon and cecum", "setting": "[1]", "value": "some increase"}, {"measurement": "OT-1 cells in the small intestine", "setting": "[1]", "value": "no effect"}, {"measurement": "GPR15 expression on OT-1 cells in the blood", "setting": "[2]; blood, day 4-6", "value": "most robust"}, {"measurement": "GPR15 expression on CD8a+ cells of the recipient (mostly naïve)", "setting": "[2]; blood, day 5", "value": "did not affect"}, {"measurement": "GPR15 on adoptively transferred OT-1 cells (effector phase)", "setting": "[2]; blood, day 5", "value": "up-regulated"}, {"measurement": "GPR15 on OT-1 cells (effector CD8+ T cells)", "setting": "[2]", "value": "significantly up-regulated"}, {"measurement": "trafficking of in vitro cultured cells to small and large intestine", "setting": "OT-1 cells", "value": "did not constitute trafficking"}, {"measurement": "GPR15 on OT-1 cells nucleofected with AHR gRNA", "setting": "AHR; day 5 blood, compared to control gRNA cells", "value": "not 10-CL-BBQ dependent upregulation"}, {"measurement": "representation of AHR KO cells in the colon and cecum (ratio [Ctrl] to [AHR knockout], normalized to spleen)", "setting": "AHR; day 7 post immunization", "value": "under-represented"}]}, {"compound": "CC1=C(/C=C/C(C)=C/C=C/C(C)=C/C(=O)O)C(C)(C)CCC1", "note": "[ATRA, 3,7-Dimethyl-9-(2,6,6-trimethyl-1-cyclohexen-1-yl)-2E,4E,6E,8E,-nonatetraenoic acid]", "values": [{"measurement": "CD8+ T cell trafficking to the small intestine", "setting": "[1]; subcutaneous vaccination model", "value": "increased"}, {"measurement": "tissue residence", "setting": "[1]; subcutaneous vaccination model", "value": "promoted"}, {"measurement": "α4β7 and CCR9 expression", "setting": "[2]", "value": "increased"}, {"measurement": "α4β7^high GPR15+ population", "setting": "OT-1 CD8+ T cells; 10 nM ATRA added 24-48 hours after IL-2+TGF-β1+10-CL-BBQ", "value": "enabled the generation of an α4β7^high GPR15+ population"}, {"measurement": "GPR15 expression", "setting": "OT-1 CD8+ T cells; [4]", "value": "completely abrogated"}, {"measurement": "trafficking phenotype (α4β7, CCR9)", "setting": "OT-1 CD8+ T cells; [4]", "value": "skewed cells towards a small intestine trafficking phenotype"}]}, {"compound": "CC1(C)CCC(C)(C)c2cc(NC(=O)c3ccc(C(=O)O)cc3)ccc21", "note": "[Am80, 4-[[(5,6,7,8-Tetrahydro-5,5,8,8-tetramethyl-2-naphthalenyl)amino]carbonyl]benzoic acid]", "values": [{"measurement": "OT-1 effector cells in the colon and cecum", "setting": "[1]", "value": "some increase"}, {"measurement": "OT-1 cells in the small intestine", "setting": "[1]", "value": "increased"}, {"measurement": "optimal trafficking to the large intestine", "setting": "[1]; subcutaneous vaccination model", "value": "not sufficient"}, {"measurement": "CD8+ T cell trafficking to the small intestine", "setting": "[1]; subcutaneous vaccination model", "value": "increased"}, {"measurement": "tissue residence", "setting": "[1]; subcutaneous vaccination model", "value": "promoted"}, {"measurement": "α4β7 and CCR9 expression", "setting": "[2]", "value": "increased"}]}, {"compound": "Cc1ccccc1N=Nc1ccc(NC(=O)c2ccnn2C)c(C)c1", "note": "[CH-223191]", "values": [{"measurement": "effects of 10-CL-BBQ on colon trafficking", "setting": "[3]; 250 nmol in PEG-400, given with 10-CL-BBQ", "value": "antagonized"}]}, {"compound": "Nc1ccccc1C(=O)C[C@H](N)C(=O)O", "note": "[L-KYN, L-kynurenine]", "values": [{"measurement": "colon trafficking (OT-1 cells out of total CD8+ T cells)", "setting": "[1]; alone", "value": "did not increase"}, {"measurement": "colon trafficking (OT-1 cells out of total CD8+ T cells)", "setting": "[1]; in combination with Am80", "value": "did not increase"}, {"measurement": "GPR15 on OT-1 cells (effector CD8+ T cells)", "setting": "[2]", "value": "did not increase"}]}, {"compound": "FC(F)(F)c1ccc(Nc2nccc(-c3cccc(Cl)c3)n2)cc1", "note": "[VAF347]", "values": [{"measurement": "colon trafficking (OT-1 cells out of total CD8+ T cells)", "setting": "[3]; 250 nmol in PEG-400", "value": "increased colon trafficking but at a lower efficacy than 10-CL-BBQ"}]}]}
